Measurements taken from patent publication US20040038199A1, “Phenotyping assay and reagents therefor” (priority 2000, published 2004).
Where two headings read alike, the source gives them in different places.

How the values were obtained:
Assay type in all cases: cell-based, HIV-1
[1] = tested on: Virus 1 (recombinant generated from plasma of Subject 1 by FPH or RVA); assay: MTT-reduction cell viability drug susceptibility assay, recombinant Virus 1 (FPH or RVA); settings: for fold resistance: Table 3A, relative to WT (HXB2); for fold higher susceptibility when generated by RVA than when generated by FPH: virus 1
Experimental: (§1) As previously discussed, recombinant virus produced by the method of the present invention may be used in drug sensitivity assays. A suitable drug sensitivity assay is described in Pauwels et al. (1988) and is an MTT-reduction colorimetric cell viability assay. Cells infected with the virus are plated into the wells of tissue culture plates and incubated with the anti-viral drug to be tested. After incubation, MTT (3-(4,5-dimethylthiazol-2-yl)-2,5diphenyltetrazolium bromide) is added to the cell culture. Only live cells produce the blue formazan product after incubation with MTT. This product is detectable by reading the optical absorbance at 540-590 nm, so the absorbance reading gives a measure of the cells which have been protected from the virus by the anti-viral drug. Viral drug resistance results in a decrease in surviving cells and a decrease in absorbance at 540-590 nm.
(§2) In this experiment, plasma from three HIV-1 infected subjects experiencing virological failure on PI-containing therapy regimens was used as the basis for the FPH to generate recombinant virus. […] Virus from Subject 2 had L10I, M46I, I50V and a Lp1′F mutation at the p1/p6 protease cleavage site, all of which are mutations typical of high level APV resistance.
(§3) The LTR was added to the nested products by PMR prior to transfection. The PMR reactions successfully added the LTR sequences to the nested products (FIG. 9). The first round RT-PCR reactions were also used as templates to generate products for RVA by cotransfection with pHXBΔCSPRTC. Triplicate PCR products were cotransfected into MT4 cells with the linearised plasmid pHXBTOPO1, in the case of the PMR products, and with linearised pHXBΔCSPRTC in for the RVA products. Viral cytopathic effect was observed and titratable virus was harvested in the supernatants. No virus was isolated from virus 2 using FPH and only one of the triplicate cultures from virus 3 yielded infectious virus. All of the RVA cultures produced virus.
(§4) In order to determine whether the extra sequences in the FPH recombinants contain determinants of susceptibility, the recombinant viruses were tested against several drugs. Drug susceptibility was determined by the 3-(4,5dimethylthiazol-2-yl)-2,5-diphenyltetrazolium bromide (MTT)-reduction calorimetric cell viability assay described previously (Pauwels et al. 1988; Robinson et al., 2000). Changes in susceptibility were defined as fold increase in IC50 relative to WT (HXB2). Nucleotide sequences were determined using ABI 3700 capillary sequencers and Big Dye terminators. […] Virus 1 also gave a 2.2-fold (Table 3A) or 4-fold (Table 3B) higher susceptibility to IDV and 2.9-fold (Table 3A) or 3.2-fold higher susceptibility to APV when generated by RVA.

HXB2 = assay: MTT-reduction cell viability drug susceptibility assay, wild type HXB2 (Table 3A)
Experimental: as §1, §4

[2] = tested on: WT (HXB2) generated by FPH or RVA; assay: MTT-reduction cell viability drug susceptibility assay, WT (Table 3B); settings: for EC50: Human immunodeficiency virus 1, HXB2, Table 3B; for fold resistance: Table 3B
Experimental: as §1, §4

[3] = tested on: Virus 3.1, 3.2, 3.3 (recombinants by FPH or RVA); assay: MTT-reduction cell viability drug susceptibility assay, viruses 3.1-3.3 (Table 3B); settings: for fold resistance: Table 3B, relative to WT
Experimental: as §1, §3, §4

[4] = tested on: Virus 3 (recombinant generated from plasma of Subject 3 by FPH or RVA); assay: MTT-reduction cell viability drug susceptibility assay, recombinant Virus 3 (FPH or RVA); settings: for EC50: Human immunodeficiency virus 1, Table 3A; for fold resistance: Table 3A, relative to WT (HXB2)
Experimental: as §1, §2, §3, §4

[5] = tested on: Virus 2 (recombinant generated from plasma of Subject 2 by RVA); assay: MTT-reduction cell viability drug susceptibility assay, recombinant Virus 2 (RVA)
Experimental: as §1, §2, §3, §4

[6] = tested on: Virus 5.1 (FPH), 5.2 (RVA); assay: MTT-reduction cell viability drug susceptibility assay, viruses 5.1 and 5.2 (Table 3B); settings: for EC50: Human immunodeficiency virus 1, Table 3B; for fold resistance: Table 3B, relative to WT
Experimental: as §1, §3, §4

[7] = tested on: Virus 4.1, 4.2, 4.3 (recombinants by RVA); assay: MTT-reduction cell viability drug susceptibility assay, viruses 4.1-4.3 (Table 3B); settings: for EC50: Human immunodeficiency virus 1, Table 3B; for fold resistance: Table 3B, relative to WT
Experimental: as §1, §3, §4

[8] = tested on: recombinant viruses generated by FPH or RVA; assay: Comparison of drug susceptibility of FPH generated and RVA generated viruses; settings: two separate experiments (tables 3A and B)
Experimental: as §1
In order to determine whether the extra sequences in the FPH recombinants contain determinants of susceptibility, the recombinant viruses were tested against several drugs. Drug susceptibility was determined by the 3-(4,5dimethylthiazol-2-yl)-2,5-diphenyltetrazolium bromide (MTT)-reduction calorimetric cell viability assay described previously (Pauwels et al. 1988; Robinson et al., 2000). […] Nucleotide sequences were determined using ABI 3700 capillary sequencers and Big Dye terminators. […]

[9] = Human immunodeficiency virus 1, Table 3B, Virus 3.1, method FPH, read-out: Drug EC50
[10] = Human immunodeficiency virus 1, Table 3B, Virus 3.2, method FPH, read-out: Drug EC50
[11] = Human immunodeficiency virus 1, Table 3B, Virus 3.3, method FPH, read-out: Drug EC50
[12] = Human immunodeficiency virus 1, read-out: Drug EC50, Table 3B, Virus 3.1, method RVA

| SMILES | fold higher susceptibility when generated by RVA than when generated by FPH ([1]; Table 3B experiment) [fold] | EC50 ([2]; method FPH) [nM] | EC50 ([2]; method RVA) [nM] | fold resistance ([2]; method FPH (reference)) | fold resistance ([2]; method RVA (reference)) | EC50 [3, 9] [nM] | EC50 [3, 10] [nM] | EC50 [3, 11] [nM] | EC50 [3, 12] [nM] | fold resistance ([3]; Virus 3.1, method FPH) | fold resistance ([3]; Virus 3.1, method RVA) | fold resistance ([3]; Virus 3.2, method FPH) | fold resistance ([3]; Virus 3.3, method FPH) | EC50 ([6]; Virus 5.1, method FPH) [nM] | EC50 ([6]; Virus 5.2, method RVA) [nM] | fold resistance ([6]; Virus 5.1, method FPH) | fold resistance ([6]; Virus 5.2, method RVA) | EC50 ([7]; Virus 4.1, method RVA) [nM] | EC50 ([7]; Virus 4.2, method RVA) [nM] | EC50 ([7]; Virus 4.3, method RVA) [nM] | other results |
| --- | --- | --- | --- | --- | --- | --- | --- | --- | --- | --- | --- | --- | --- | --- | --- | --- | --- | --- | --- | --- | --- |
| CC(C)(C)NC(=O)[C@@H]1CN(Cc2cccnc2)CCN1C[C@@H](O)C[C@@H](Cc1ccccc1)C(=O)N[C@H]1c2ccccc2C[C@H]1O [IDV, indinavir] | 4 | 30.8 | 31.2 | (1.0) fold | (1.0) fold | 60.1 | 57.1 | 53.2 | 11.6 | (2.0) fold | (−2.7) fold | (1.9) fold | (1.7) fold | 2230 | 1520 | (72) fold | (49) fold | 65 | 23.8 | 39.3 | EC50 ([1]; Human immunodeficiency virus 1, Table 3A, Virus 1, method RVA, read-out: Drug EC50): 14.2 nM; EC50 ([1]; Human immunodeficiency virus 1, read-out: Drug EC50, Table 3A, Virus 1, method FPH): 31.2 nM; fold resistance ([1]; Virus 1, method FPH): (1.1) fold; fold resistance ([1]; Virus 1, method RVA): (0.48) fold; fold higher susceptibility when generated by RVA than when generated by FPH ([1]; Table 3A experiment): 2.2 fold; fold resistance (HXB2; HXB2 wild type (reference)): (1.0) fold; EC50 (HXB2; Human immunodeficiency virus 1, HXB2 wild type): 29.7 nM; EC50 ([3]; Human immunodeficiency virus 1, Table 3B, Virus 3.2, method RVA, read-out: Drug EC50): 16.5 nM; fold resistance ([3]; Virus 3.2, method RVA): (−1.9) fold; EC50 ([4]; Virus 3, method FPH): 1250 nM; EC50 ([4]; Virus 3, method RVA): 689 nM; fold resistance ([4]; Virus 3, method FPH): (42) fold; fold resistance ([4]; Virus 3, method RVA): (23) fold; EC50 ([5]; Human immunodeficiency virus 1, Table 3A, Virus 2, method RVA): 18.7 nM; fold resistance ([5]; Table 3A, Virus 2, method RVA, relative to WT (HXB2)): (0.63) fold; fold resistance ([7]; Virus 4.1, method RVA): (2.1) fold; fold resistance ([7]; Virus 4.2, method RVA): (−1.3) fold; fold resistance ([7]; Virus 4.3, method RVA): (1.3) fold |
| Cc1cn([C@H]2C[C@H](N=[N+]=[N-])[C@@H](CO)O2)c(=O)[nH]c1=O [ZDV, zidovudine] | 4.8 | 28.3 | 30.7 | (1.0) fold | (1.0) fold | 76.1 | 65.3 | 35.1 | 12.3 | (2.7) fold | (−2.5) fold | (2.3) fold | (1.2) fold | 48.2 | 16.5 | (1.7) fold | (−1.9) fold | > 5000 | > 5000 | > 5000 | difference in susceptibility between the two techniques (RVA vs FPH) ([4]; virus 3, Table 3B experiment): 2.9 fold; resistance, fold higher than wild-type ([5]; Virus 2 obtained via the RVA, Table 3B experiment): > 84 fold; fold resistance ([7]; Virus 4.1, method RVA): (>163) fold; fold resistance ([7]; Virus 4.2, method RVA): (>163) fold; fold resistance ([7]; Virus 4.3, method RVA): (>163) fold; Susceptibility in FPH generated versus RVA generated viruses [8]: lower in the FPH generated than the RVA generated viruses |
